According to PMC10141580, “Cyclic Dichalcogenides Extend the Reach of Bioreductive Prodrugs to Harness Thiol/Disulfide Oxidoreductases: Applications to seco-Duocarmycins Targeting the Thioredoxin System” (ACS Central Science, 2023):
“And” between values parts separate entries of the source, which are not always exact repeats. Equal entries are not always repeated. Where two headings read alike, the source gives them in different places.

Tested on: panel of 140 standard cancer cell lines
Assay: ProliFiler-140 cancer cell line screen (CellTiterGlo, 72 h)
Format: cell-based
Procedure: Incubations were performed for 72 h before automated viability readout with CellTiterGlo (Figure 8).
End of Figure S11 (part 5 of 5): ProliFiler-140 cancer cell line screening for cytotoxicity of the prodrugs.
8-data-point dose response curves from CellTiter-Glo® viability readout.
ProliFiler-140 cell line panel part V

## COc1cc2cc(C(=O)N3C[C@@H](CCl)c4c3cc(OC(=O)N3CCN(C(=O)CCC(=O)N5CCN(C)CC5)[C@H]5CSSC[C@H]53)c3ccccc43)[nH]c2c(OC)c1OC [P-SS66C-CBI-TMI]
786-O (Kidney)
  Reductive Activation Index: 4.12
A172 (Brain)
  Reductive Activation Index: 5.35
A375 (Skin)
  Reductive Activation Index: 3.01
A427 (Lung)
  Reductive Activation Index: 19 and 18.60
A498 (Kidney)
  Reductive Activation Index: 3.19
A549 (Lung)
  Reductive Activation Index: 25
AsPC-1 (Pancreas)
  Reductive Activation Index: 8.2
BEN (Lung)
  Reductive Activation Index: 27
BT-20 (Breast)
  Reductive Activation Index: 9.1
COV434, read-out: IC50 [M] (ProliFiler-140), COV434 (Ovary)
  IC50: 1.5e-08 M
Caki-1 (Kidney)
  Reductive Activation Index: 5.18
Caki-2 (Kidney)
  Reductive Activation Index: 5.62 and 5.6
Calu-6 (Lung)
  Reductive Activation Index: 5.77
Colo 205 (Colon)
  Reductive Activation Index: 8.8
DLD-1 (Colon)
  Reductive Activation Index: 6.33 and 6.3
EFM-19 (Breast)
  Reductive Activation Index: 3.1 and 3.08
EFM-192A (Breast)
  Reductive Activation Index: 6.6
EFM-192A, read-out: IC50 [M] (ProliFiler-140), EFM-192A (Breast)
  IC50: 2.7e-07 M
EFO-27 (Ovary)
  Reductive Activation Index: 15
H4 (Brain)
  Reductive Activation Index: 5.82
H460 (Lung)
  Reductive Activation Index: 9.3
HCC202 (Breast)
  Reductive Activation Index: 9.8
HCC202, read-out: IC50 [M] (ProliFiler-140), HCC202 (Breast)
  IC50: 9.1e-08 M
HCC827 (Lung)
  Reductive Activation Index: 15
HCC 1569 (Breast)
  Reductive Activation Index: 28
HCT-15 (Colon)
  Reductive Activation Index: 3.89
HEC-1-A (Endometrium)
  Reductive Activation Index: 18
HEC-1-B (Endometrium)
  Reductive Activation Index: 8.3
HT-29 (Colon)
  Reductive Activation Index: 9.5
HeLa (Ovary)
  Reductive Activation Index: 23.88
Hep3B2.1-7 (Liver)
  Reductive Activation Index: 7.8
Homo sapiens, 786-0, read-out: IC50 [M] (ProliFiler-140), 786-O (Kidney)
  IC50: 2.86e-08 M
Homo sapiens, A 172, read-out: IC50 [M] (ProliFiler-140), A172 (Brain)
  IC50: 1.07e-07 M
Homo sapiens, A498, read-out: IC50 [M] (ProliFiler-140), A498 (Kidney)
  IC50: 9.41e-08 M
Homo sapiens, A549, read-out: IC50 [M] (ProliFiler-140), A549 (Lung)
  IC50: 3e-08 M
Homo sapiens, A2058, read-out: IC50 [M] (ProliFiler-140), A2058 (Skin)
  IC50: 1.1e-08 M
Homo sapiens, A2780, read-out: IC50 [M] (ProliFiler-140), A2780 (Ovary)
  IC50: 8.1e-09 M
Homo sapiens, A-375, read-out: IC50 [M] (ProliFiler-140), A375 (Skin)
  IC50: 5.45e-08 M
Homo sapiens, A-427, read-out: IC50 [M] (ProliFiler-140), A427 (Lung)
  IC50: 4.4e-08 M
Homo sapiens, A-431, read-out: IC50 [M] (ProliFiler-140), A431 (Skin)
  IC50: 2.02e-08 M
Homo sapiens, ASPC1, read-out: IC50 [M] (ProliFiler-140), AsPC-1 (Pancreas)
  IC50: 2.6e-07 M
Homo sapiens, BT-20, read-out: IC50 [M] (ProliFiler-140), BT-20 (Breast)
  IC50: 1.2e-07 M
Homo sapiens, BXPC-3, read-out: IC50 [M] (ProliFiler-140), BxPC-3 (Pancreas)
  IC50: 4.64e-08 M
Homo sapiens, CAKI-1, Caki-1
  IC50: 6.3e-08 M
Homo sapiens, CAKI-1, read-out: IC50 [M] (ProliFiler-140), Caki-1 (Kidney)
  IC50: 6.34e-08 M
Homo sapiens, CAKI-2, read-out: IC50 [M] (ProliFiler-140), Caki-2 (Kidney)
  IC50: 2.69e-07 M
Homo sapiens, COLO 205, Colo 205
  IC50: 8.6e-08 M
Homo sapiens, COLO 205, read-out: IC50 [M] (ProliFiler-140), Colo 205 (Colon)
  IC50: 8.6e-08 M
Homo sapiens, COR-L279, read-out: IC50 [M] (ProliFiler-140), COR-L279 (Lung)
  IC50: 7.2e-09 M
Homo sapiens, Calu-6, read-out: IC50 [M] (ProliFiler-140), Calu-6 (Lung)
  IC50: 5.93e-08 M
Homo sapiens, DLD-1, read-out: IC50 [M] (ProliFiler-140), DLD-1 (Colon)
  IC50: 1.25e-07 M
Homo sapiens, DU-145, read-out: IC50 [M] (ProliFiler-140), DU-145 (Prostate)
  IC50: 1.6e-08 M
Homo sapiens, DV-90, read-out: IC50 [M] (ProliFiler-140), DV90 (Lung)
  IC50: 1.2e-08 M
Homo sapiens, Detroit 562, read-out: IC50 [M] (ProliFiler-140), Detroit562 (Head/Neck)
  IC50: 1.88e-08 M
Homo sapiens, EFM-19, read-out: IC50 [M] (ProliFiler-140), EFM-19 (Breast)
  IC50: 3.1e-07 M
Homo sapiens, EFO-27, read-out: IC50 [M] (ProliFiler-140), EFO-27 (Ovary)
  IC50: 6.2e-08 M
Homo sapiens, EPLC-272H, read-out: IC50 [M] (ProliFiler-140), EPLC-272H (Lung)
  IC50: 4.57e-08 M
Homo sapiens, HCC38, read-out: IC50 [M] (ProliFiler-140), HCC38 (Breast)
  IC50: 1.35e-08 M
Homo sapiens, HCC827, read-out: IC50 [M] (ProliFiler-140), HCC827 (Lung)
  IC50: 9.1e-08 M
Homo sapiens, HCC1569, read-out: IC50 [M] (ProliFiler-140), HCC 1569 (Breast)
  IC50: 3.6e-08 M
Homo sapiens, HCT-15, HCT-15
  IC50: 1.4e-07 M
Homo sapiens, HCT-15, read-out: IC50 [M] (ProliFiler-140), HCT-15 (Colon)
  IC50: 1.4e-07 M
Homo sapiens, HCT-116, HCT116
  IC50: 3.2e-08 M
Homo sapiens, HCT-116, read-out: IC50 [M] (ProliFiler-140), HCT116 (Colon)
  IC50: 3.23e-08 M
Homo sapiens, HEC-1-A, read-out: IC50 [M] (ProliFiler-140), HEC-1-A (Endometrium)
  IC50: 1e-07 M
Homo sapiens, HEC-1B, read-out: IC50 [M] (ProliFiler-140), HEC-1-B (Endometrium)
  IC50: 4e-07 M
Homo sapiens, HL-60, HL-60
  IC50: 1.5e-08 M
Homo sapiens, HL-60, read-out: IC50 [M] (ProliFiler-140), HL-60 (Blood)
  IC50: 1.5e-08 M
Homo sapiens, HT-29, HT-29
  IC50: 1.1e-07 M
Homo sapiens, HT-29, read-out: IC50 [M] (ProliFiler-140), HT-29 (Colon)
  IC50: 1.1e-07 M
Homo sapiens, HT-1080, read-out: IC50 [M] (ProliFiler-140), HT-1080 (Fibrosarcoma)
  IC50: 2.13e-08 M
Homo sapiens, HeLa, read-out: IC50 [M] (ProliFiler-140), HeLa (Ovary)
  IC50: 9.89e-09 M
Homo sapiens, Hs746T, read-out: IC50 [M] (ProliFiler-140), Hs 746T (Stomach)
  IC50: 7.5e-08 M
Homo sapiens, HuTu80, read-out: IC50 [M] (ProliFiler-140), Hutu 80 (Duodenum)
  IC50: 9.56e-09 M
Homo sapiens, Huh-7, read-out: IC50 [M] (ProliFiler-140), HuH7 (Liver)
  IC50: 1e-07 M
Homo sapiens, Ishikawa, read-out: IC50 [M] (ProliFiler-140), Ishikawa (Endometrium)
  IC50: 3.8e-09 M
Homo sapiens, JIMT-1, read-out: IC50 [M] (ProliFiler-140), JIMT-1 (Breast)
  IC50: 1e-07 M
Homo sapiens, JVM-3, read-out: IC50 [M] (ProliFiler-140), JVM-3 (Blood)
  IC50: 3.36e-09 M
Homo sapiens, Jurkat, read-out: IC50 [M] (ProliFiler-140), Jurkat (Blood)
  IC50: 6.17e-09 M
Homo sapiens, K562, read-out: IC50 [M] (ProliFiler-140), K562 (Blood)
  IC50: 1.3e-07 M
Homo sapiens, KARPAS-299, KARPAS 299 (Blood), read-out: IC50 [M] (ProliFiler-140)
  IC50: 1.08e-07 M
Homo sapiens, KATO III, read-out: IC50 [M] (ProliFiler-140), Kato III (Stomach)
  IC50: 2.2e-07 M
